The target in one experiment is Hs_CDK5/p25 (Homo sapiens, UniProt Q00535). The experiment can be described thus: primary screening, short panel of mammalian kinases. Format: biochemical. The following applies: ATP 10 µM, means, n = 2, read-out: Residual kinase activity Hs_CDK5/p25. From the text: (§1) Our molecules have been submitted first to a primary screening against a panel of eight disease-related kinases: five members of the CMGC (for CDK, MAPK, GSK3, and CLK) group (CDK5/p25, CDK9/CyclinT, GSK3β, CLK1 and DYRK1A), one CAMK (calmodulin/calcium regulated kinase PIM1), one CK1 (the casein kinase CK1ε), and haspin as a […] kinase.
Chain of Hs_CDK5/p25 (Q00535 whole entry): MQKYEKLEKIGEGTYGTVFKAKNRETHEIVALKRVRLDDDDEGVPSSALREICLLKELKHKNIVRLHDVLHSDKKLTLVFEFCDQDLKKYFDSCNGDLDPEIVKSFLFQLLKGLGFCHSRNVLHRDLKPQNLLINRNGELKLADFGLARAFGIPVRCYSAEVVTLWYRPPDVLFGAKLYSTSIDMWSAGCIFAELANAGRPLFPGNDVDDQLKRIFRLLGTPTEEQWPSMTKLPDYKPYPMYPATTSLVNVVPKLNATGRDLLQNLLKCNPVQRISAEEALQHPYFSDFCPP
Chain of Hs_CDK5/p25 (Q15078 99-307 partner limits assumed): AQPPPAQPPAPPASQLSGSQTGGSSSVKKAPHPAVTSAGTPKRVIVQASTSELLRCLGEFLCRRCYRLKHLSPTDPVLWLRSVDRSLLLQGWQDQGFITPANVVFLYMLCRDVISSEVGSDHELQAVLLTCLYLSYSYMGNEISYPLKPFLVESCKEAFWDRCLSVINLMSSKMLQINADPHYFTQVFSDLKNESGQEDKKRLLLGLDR
(§2) Figure 4 Primary evaluation of the inhibition of the new quinazolines against a short panel of mammalian kinases. Residual kinase activities are expressed in % of maximal activity, i.e., measured in the absence of inhibitor but with an equivalent dose of DMSO (solvent of the tested compounds). ATP concentration used in the kinase assays was 10 µM (values are means, n = 2). Kinases are from human origin (Homo sapiens) except CLK1 (from Mus musculus) and DYRK1A (from Rattus norvegicus). […]

The target in a further experiment is Hs_CDK9/CyclinT (Homo sapiens, UniProt P50750). The description is as above. The following applies: ATP 10 µM, means, n = 2, read-out: Residual kinase activity Hs_CDK9/CyclinT. The class given is biochemical.
Chain of Hs_CDK9/CyclinT (P50750 whole entry): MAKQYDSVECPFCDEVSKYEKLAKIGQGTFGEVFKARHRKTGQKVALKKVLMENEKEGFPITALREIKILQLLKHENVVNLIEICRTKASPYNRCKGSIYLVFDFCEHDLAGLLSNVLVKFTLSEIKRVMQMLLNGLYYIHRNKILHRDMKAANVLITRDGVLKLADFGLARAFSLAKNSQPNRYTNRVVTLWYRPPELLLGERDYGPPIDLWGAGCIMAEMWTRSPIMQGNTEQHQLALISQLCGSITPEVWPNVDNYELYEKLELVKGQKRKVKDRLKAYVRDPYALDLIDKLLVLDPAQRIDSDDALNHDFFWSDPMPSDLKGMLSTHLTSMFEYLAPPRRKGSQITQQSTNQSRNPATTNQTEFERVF
Chain of Hs_CDK9/CyclinT (O60563 whole entry partner): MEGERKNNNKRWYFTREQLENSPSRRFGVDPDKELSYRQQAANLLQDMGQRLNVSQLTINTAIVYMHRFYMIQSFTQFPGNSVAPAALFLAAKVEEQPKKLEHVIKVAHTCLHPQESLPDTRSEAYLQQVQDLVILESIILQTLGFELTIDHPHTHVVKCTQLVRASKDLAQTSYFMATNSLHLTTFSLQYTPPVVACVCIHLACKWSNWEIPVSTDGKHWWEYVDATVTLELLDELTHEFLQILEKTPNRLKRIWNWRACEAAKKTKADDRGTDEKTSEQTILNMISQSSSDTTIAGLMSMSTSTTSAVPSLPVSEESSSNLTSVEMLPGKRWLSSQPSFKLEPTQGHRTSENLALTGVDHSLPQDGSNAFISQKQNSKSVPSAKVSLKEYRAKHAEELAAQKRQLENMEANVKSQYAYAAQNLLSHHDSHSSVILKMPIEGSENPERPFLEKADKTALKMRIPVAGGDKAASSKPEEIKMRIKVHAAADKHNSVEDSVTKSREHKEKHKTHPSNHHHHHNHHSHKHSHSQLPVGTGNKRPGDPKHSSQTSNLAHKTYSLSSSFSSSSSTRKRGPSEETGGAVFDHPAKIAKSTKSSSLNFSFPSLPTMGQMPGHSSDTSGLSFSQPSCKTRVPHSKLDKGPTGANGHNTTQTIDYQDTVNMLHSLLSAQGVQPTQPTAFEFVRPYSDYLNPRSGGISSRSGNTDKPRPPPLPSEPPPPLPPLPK
Source text: as §1, §2

In another experiment the target is Hs_CK1ε (Homo sapiens, UniProt P49674). The description is as above. The class given is biochemical. The following applies: ATP 10 µM, means, n = 2, read-out: Residual kinase activity Hs_CK1ε.
Chain of Hs_CK1ε (P49674 whole entry): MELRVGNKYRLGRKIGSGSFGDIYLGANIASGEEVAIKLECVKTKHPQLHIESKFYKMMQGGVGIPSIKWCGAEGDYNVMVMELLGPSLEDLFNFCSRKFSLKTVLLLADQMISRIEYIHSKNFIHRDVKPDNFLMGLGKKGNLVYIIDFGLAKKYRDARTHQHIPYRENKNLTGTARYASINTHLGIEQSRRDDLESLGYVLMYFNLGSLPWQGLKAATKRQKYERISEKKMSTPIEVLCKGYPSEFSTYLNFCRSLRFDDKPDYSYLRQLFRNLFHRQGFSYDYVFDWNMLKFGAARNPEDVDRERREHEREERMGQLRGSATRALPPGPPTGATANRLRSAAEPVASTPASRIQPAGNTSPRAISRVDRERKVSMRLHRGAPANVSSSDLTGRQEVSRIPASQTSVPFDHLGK
Source text: as §1, §2

A further experiment has as its target Hs_GSK3β (Homo sapiens, UniProt P49841). The experiment is described as above. Format: biochemical. The following applies: ATP 10 µM, means, n = 2, read-out: Residual kinase activity Hs_GSK3β.
Source text: as §1, §2

The target of another experiment is T1, Hs_HASPIN (Homo sapiens, UniProt Q8TF76).
T1 sequence (Q8TF76 1-798): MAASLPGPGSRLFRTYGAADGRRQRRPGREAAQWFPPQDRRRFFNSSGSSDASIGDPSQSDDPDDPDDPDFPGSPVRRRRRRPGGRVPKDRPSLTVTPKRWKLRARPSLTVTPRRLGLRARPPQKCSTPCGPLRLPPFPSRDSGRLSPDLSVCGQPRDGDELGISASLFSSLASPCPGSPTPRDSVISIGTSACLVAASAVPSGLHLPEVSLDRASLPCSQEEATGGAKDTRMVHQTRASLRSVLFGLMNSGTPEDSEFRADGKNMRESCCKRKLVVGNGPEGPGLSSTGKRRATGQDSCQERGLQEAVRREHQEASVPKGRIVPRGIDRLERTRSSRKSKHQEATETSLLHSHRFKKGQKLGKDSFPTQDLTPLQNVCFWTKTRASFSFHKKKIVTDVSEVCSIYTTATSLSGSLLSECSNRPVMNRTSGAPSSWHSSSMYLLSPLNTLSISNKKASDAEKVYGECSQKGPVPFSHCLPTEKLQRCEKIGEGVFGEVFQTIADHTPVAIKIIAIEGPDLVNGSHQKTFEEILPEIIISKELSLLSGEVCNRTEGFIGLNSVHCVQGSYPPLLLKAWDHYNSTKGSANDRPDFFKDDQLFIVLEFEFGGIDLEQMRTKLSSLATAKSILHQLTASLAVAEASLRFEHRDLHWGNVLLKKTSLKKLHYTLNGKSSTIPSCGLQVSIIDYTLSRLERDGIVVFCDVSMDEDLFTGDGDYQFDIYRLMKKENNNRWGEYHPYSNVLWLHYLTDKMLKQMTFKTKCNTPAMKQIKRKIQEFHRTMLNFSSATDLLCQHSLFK
Described as above. Format: biochemical. The following applies: ATP 10 µM, means, n = 2, read-out: Residual kinase activity Hs_HASPIN.
Source text: as §1, §2

In another experiment the target is Hs_PIM1 (Homo sapiens, UniProt P11309). The experiment is described as above. Format: biochemical. The following applies: ATP 10 µM, means, n = 2, read-out: Residual kinase activity Hs_PIM1.
Chain of Hs_PIM1 (P11309 whole entry): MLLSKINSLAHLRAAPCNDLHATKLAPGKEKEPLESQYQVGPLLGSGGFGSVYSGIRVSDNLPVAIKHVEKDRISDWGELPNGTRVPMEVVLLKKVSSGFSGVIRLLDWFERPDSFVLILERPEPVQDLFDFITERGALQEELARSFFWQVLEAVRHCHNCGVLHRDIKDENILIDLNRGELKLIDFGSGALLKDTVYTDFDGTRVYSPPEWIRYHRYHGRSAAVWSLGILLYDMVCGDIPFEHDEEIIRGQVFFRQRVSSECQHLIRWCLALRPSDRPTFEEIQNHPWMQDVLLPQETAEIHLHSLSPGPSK
Source text: as §1, §2

The next experiment addresses Mm_CLK1 (Mus musculus, UniProt P22518). The description is as above. The class given is biochemical.
Source text: as §1, §2

Experiment [1] deals with T2, Rn_DYRK1A (Rattus norvegicus, UniProt Q63470). The experiment is described as above. The class given is biochemical. The following applies: ATP 10 µM, means, n = 2, read-out: Residual kinase activity Rn_DYRK1A.
Source text: as §1, §2

For the next experiment, the target named is Mm_CLK3 (Mus musculus, UniProt O35492). The experiment can be described thus: radiometric γ33P-ATP kinase assay (Eurofins). The class given is biochemical. The following applies: 15 µM ATP; dose-response, points in duplicate. The procedure: (§3) The results are reported in Table 2 and in Supporting Information File 1.
Chain of Mm_CLK3 (O35492 whole entry): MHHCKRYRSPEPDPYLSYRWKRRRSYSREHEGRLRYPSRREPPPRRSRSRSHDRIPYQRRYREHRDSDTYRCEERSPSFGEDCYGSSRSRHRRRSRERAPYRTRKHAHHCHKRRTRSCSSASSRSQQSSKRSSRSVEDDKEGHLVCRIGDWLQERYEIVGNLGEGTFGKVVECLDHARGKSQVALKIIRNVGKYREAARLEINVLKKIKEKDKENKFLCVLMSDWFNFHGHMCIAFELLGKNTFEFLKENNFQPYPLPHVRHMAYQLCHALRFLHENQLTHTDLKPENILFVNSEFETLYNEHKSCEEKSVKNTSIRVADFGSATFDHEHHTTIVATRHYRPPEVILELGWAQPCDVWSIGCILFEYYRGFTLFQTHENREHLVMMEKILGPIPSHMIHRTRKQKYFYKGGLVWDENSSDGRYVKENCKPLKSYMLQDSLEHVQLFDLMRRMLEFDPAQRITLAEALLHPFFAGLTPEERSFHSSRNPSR
(§4) 2- Kinase inhibition studies
(§5) Kinase enzymatic activities were assayed using both luminescent ADP detection assay
(§6) (ADP-GloTM assay kit, Promega, Madison, WI) or radiometric kinase assay. These
(§7) assays were performed using the protocols described in our previous publication. […]
(§8) 1.Brahmaiah, D.; Kanaka Durga Bhavani, A.; Aparna, P.; Sampath Kumar, N.; Solhi,
(§9) H.; Le Guevel, R.; Baratte, B.; Ruchaud, S.; Bach, S.; Singh Jadav, S.; Raji Reddy, C.;
(§10) Roisnel, T.; Mosset, P.; Levoin, N.; Grée, R. Bioorg.
(§11) R.; Baratte, B.; Robert, T.; Ruchaud, S.; Bach, S.; Jadav, S. S.; Reddy, C. R.; Mosset,
(§12) P.; Gouault, N.; Levoin, N.; Grée, R. Molecules 2022, 27, 6149. […]

For the next experiment, the target named is T3, Hs_DYRK1A (Homo sapiens, UniProt Q13627).
T3 construct: purchased Eurofins, UK
The experiment can be described thus: radiometric γ33P-ATP kinase assay (Eurofins). Format: biochemical. The following applies: 15 µM ATP; dose-response, points in duplicate. The procedure: (§13) Finally, in order to complete our profiling of VS-77, we then measured its activity against the DYRK 1A, DYRK1B and DYRK2 kinases and the results are reported in Table 3.
as §4, §5, §6, §7, §8, §9, §10, §11, §12

The next experiment concerns the target T4, Hs_DYRK1B (Homo sapiens, UniProt Q9Y463).
T4 construct: purchased Eurofins, UK
The experiment can be described thus: radiometric γ33P-ATP kinase assay (Eurofins). The class given is biochemical. The following applies: 15 µM ATP; dose-response, points in duplicate. As to the method:
as §13, §4, §5, §6, §7, §8, §9, §10, §11, §12

The target in a further experiment is T5, Hs_DYRK2 (Homo sapiens, UniProt Q92630).
T5 construct: purchased Eurofins, UK
T5 sequence (Q92630 whole entry): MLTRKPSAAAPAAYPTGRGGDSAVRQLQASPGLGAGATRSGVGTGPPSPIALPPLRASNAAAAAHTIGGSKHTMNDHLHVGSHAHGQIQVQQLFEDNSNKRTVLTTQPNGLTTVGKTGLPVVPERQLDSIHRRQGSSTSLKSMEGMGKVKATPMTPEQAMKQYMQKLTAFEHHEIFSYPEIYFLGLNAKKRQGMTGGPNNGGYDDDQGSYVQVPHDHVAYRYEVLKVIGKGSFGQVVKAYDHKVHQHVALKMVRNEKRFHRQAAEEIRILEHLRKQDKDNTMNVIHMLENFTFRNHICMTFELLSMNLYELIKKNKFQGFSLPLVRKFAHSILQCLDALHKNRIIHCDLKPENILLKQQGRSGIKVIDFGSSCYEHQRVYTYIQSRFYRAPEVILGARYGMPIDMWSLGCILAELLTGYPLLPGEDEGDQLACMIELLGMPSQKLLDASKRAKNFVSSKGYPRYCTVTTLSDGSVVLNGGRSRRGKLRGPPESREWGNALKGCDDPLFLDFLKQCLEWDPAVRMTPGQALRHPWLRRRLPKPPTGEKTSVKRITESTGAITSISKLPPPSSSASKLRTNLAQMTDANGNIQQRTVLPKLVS
The experiment can be described thus: radiometric γ33P-ATP kinase assay (Eurofins). The following applies: 15 µM ATP; dose-response, points in duplicate. Format: biochemical. The procedure: as §13, §4, §5, §6, §7, §8, §9, §10, §11, §12

For experiment [2], the target named is T2, Rn_DYRK1A. The experiment can be described thus: radiometric γ33P-ATP kinase assay (Eurofins). Format: biochemical. The following applies: 15 µM ATP; dose-response, points in duplicate. As to the method: as §13, §4, §5, §6, §7, §8, §9, §10, §11, §12
A further experiment addresses CLK1, CLK2, and CLK4. The experiment can be described thus: radiometric kinase assay, summary for the other CLKs. Format: biochemical, mouse. The following applies: Table 2; read-out: inhibition of CLK1, CLK2, and CLK4 (best value).
Source text: as §3

The record followed here is article PMC12557437, “Research towards selective inhibition of the CLK3 kinase” (Beilstein Journal of Organic Chemistry, 2025).

“And” between values parts separate entries of the source, which are not always exact repeats. Identical values can stand only once.

Chain of Mm_CLK1 (P22518 whole entry): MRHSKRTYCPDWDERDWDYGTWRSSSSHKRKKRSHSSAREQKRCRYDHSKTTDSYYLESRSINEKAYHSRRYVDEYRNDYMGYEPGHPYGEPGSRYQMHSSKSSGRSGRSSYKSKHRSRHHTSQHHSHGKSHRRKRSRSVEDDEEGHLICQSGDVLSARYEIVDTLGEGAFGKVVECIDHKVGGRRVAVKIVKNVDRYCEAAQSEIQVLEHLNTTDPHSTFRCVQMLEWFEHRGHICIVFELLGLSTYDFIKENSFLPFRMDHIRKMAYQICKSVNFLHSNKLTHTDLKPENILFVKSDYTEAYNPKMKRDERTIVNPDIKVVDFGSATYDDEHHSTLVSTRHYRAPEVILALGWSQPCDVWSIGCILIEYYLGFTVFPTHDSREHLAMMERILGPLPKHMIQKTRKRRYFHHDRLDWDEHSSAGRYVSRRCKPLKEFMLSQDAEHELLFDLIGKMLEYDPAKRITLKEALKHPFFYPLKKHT
Chain of Hs_GSK3β (P49841 whole entry): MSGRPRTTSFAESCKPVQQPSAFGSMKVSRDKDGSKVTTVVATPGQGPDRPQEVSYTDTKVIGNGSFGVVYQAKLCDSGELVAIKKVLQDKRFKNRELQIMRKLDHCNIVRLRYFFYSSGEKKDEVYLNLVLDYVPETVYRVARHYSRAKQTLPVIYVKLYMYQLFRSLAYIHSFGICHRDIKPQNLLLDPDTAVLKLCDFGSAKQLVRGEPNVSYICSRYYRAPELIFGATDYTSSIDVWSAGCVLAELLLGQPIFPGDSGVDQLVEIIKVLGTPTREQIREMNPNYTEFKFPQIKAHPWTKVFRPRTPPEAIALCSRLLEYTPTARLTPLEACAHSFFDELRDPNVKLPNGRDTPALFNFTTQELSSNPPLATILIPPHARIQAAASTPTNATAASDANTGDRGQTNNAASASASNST
T4 sequence (Q9Y463 whole entry): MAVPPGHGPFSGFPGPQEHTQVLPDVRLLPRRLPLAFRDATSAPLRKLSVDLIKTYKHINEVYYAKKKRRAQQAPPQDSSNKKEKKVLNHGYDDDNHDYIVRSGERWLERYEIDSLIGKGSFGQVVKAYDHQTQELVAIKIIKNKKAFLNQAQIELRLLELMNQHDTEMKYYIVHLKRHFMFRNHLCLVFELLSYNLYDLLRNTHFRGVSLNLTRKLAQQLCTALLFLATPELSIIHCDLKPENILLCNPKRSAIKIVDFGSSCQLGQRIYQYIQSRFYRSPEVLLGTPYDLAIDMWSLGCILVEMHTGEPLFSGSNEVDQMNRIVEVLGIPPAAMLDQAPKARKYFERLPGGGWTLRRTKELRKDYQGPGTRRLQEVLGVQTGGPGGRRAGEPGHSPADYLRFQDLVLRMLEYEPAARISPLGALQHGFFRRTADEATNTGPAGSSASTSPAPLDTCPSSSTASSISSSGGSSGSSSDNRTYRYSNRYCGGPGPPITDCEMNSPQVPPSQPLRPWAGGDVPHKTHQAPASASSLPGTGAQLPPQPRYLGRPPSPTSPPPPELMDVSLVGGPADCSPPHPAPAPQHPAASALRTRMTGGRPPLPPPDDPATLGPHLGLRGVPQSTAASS

In the case of `Cc1ccc(-n2cc(COc3cccc4cnc(Nc5cc(Cl)cc(-c6cccc(C(=O)O)c6)c5)nc34)nn2)c([N+](=O)[O-])c1` [Compound 13b], the remaining activity at 1 µM was 92% at Hs_CDK5/p25 (compound 1 μM); 83% on Hs_CDK9/CyclinT (compound 1 μM); at least 100% at Hs_CK1ε (compound 1 μM); at least 100% on Hs_GSK3β (compound 1 μM); 74% on Hs_HASPIN (compound 1 μM); 88% on Hs_PIM1 (compound 1 μM). Also, the remaining activity at 1 µM was found to be 20% at Mm_CLK1 (compound 1 μM, ATP 10 µM, means, n = 2, read-out: Residual kinase activity Mm_CLK1) and 92% at Rn_DYRK1A [1] (compound 1 μM). The remaining activity at 10 µM was 37% at Hs_CDK5/p25 (compound 10 μM); 47% at Hs_CDK9/CyclinT (compound 10 μM); at least 100% on Hs_CK1ε (compound 10 μM); 43% at Hs_GSK3β (compound 10 μM); 74% on Hs_HASPIN (compound 10 μM); at least 100% on Hs_PIM1 (compound 10 μM). The remaining activity at 10 µM on Mm_CLK1 (compound 10 μM, ATP 10 µM, means, n = 2, read-out: Residual kinase activity Mm_CLK1) worked out at 11%; on Rn_DYRK1A [1] (compound 10 μM), 62%. The “activity against CLK1 in primary screening” value at Mm_CLK1 (1 and 10 µM) is “significant activity against CLK1”. For the same compound, the IC50 is 0.3 µM and 0.303 µM against Mm_CLK3; 5.31 µM against Hs_DYRK1A; 4.6 µM on Hs_DYRK1B; 11.7 µM against Hs_DYRK2; 14.8 µM against Rn_DYRK1A [2]; 0.06 µM on CLK1, CLK2, and CLK4.
